Test results published in PubChem BioAssay (NCI).
Values joined by “and” are separate entries in the source; they are usually repeats but may differ in a detail not shown here. Identical values can stand only once.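 Each compound was tested at five concentrations against cells in 96-well plates for 48 hours. Here, GI50 denotes the concentration required for 50% inhibition of growth. TGI: concentration producing complete growth inhibition.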

Key:
Assay in all cases: NCI-60 cell line screen, 48 h
U251 CNS = tested on: U251 CNS
NCI-H23 lung = tested on: NCI-H23 lung
NCI-H460 lung = tested on: NCI-H460 lung
UACC-257 melanoma = tested on: UACC-257 melanoma
M14 melanoma = tested on: M14 melanoma
SF-268 CNS = tested on: SF-268 CNS
A549 NSCLC = tested on: A549 NSCLC
SK-MEL-2 melanoma = tested on: SK-MEL-2 melanoma
LOX IMVI melanoma = tested on: LOX IMVI melanoma
UACC-62 melanoma = tested on: UACC-62 melanoma

COc1ccc(-c2cc(=O)c3c(OC)c(OC)c(OC)c(OC)c3o2)cc1OC
TGI (U251 CNS): > 100 µM
TGI (NCI-H23 lung): > 100 µM
TGI (NCI-H460 lung): > 100 µM
TGI (UACC-257 melanoma): > 100 µM
TGI (M14 melanoma): > 100 µM
TGI (SF-268 CNS): > 100 µM
TGI (A549 NSCLC): > 100 µM
TGI (SK-MEL-2 melanoma): > 100 µM
TGI (LOX IMVI melanoma): > 100 µM
TGI (UACC-62 melanoma): 72.4 µM

COc1ccc(/C=C2\CN(Cc3cn(CCCNc4ccnc5cc(Cl)ccc45)nn3)C/C(=C\c3ccc(OC)c(OC)c3)C2=O)cc1OC
GI50 (U251 CNS): 1.19 µM
TGI (U251 CNS): 3.88 µM
GI50 (NCI-H23 lung): 2.36 µM
TGI (NCI-H23 lung): 7.26 µM
GI50 (NCI-H460 lung): 806 nM
TGI (NCI-H460 lung): 2.12 µM
GI50 (UACC-257 melanoma): 2240 nM
TGI (UACC-257 melanoma): 12 µM
GI50 (M14 melanoma): 2590 nM
TGI (M14 melanoma): 9.68 µM
GI50 (SF-268 CNS): 0.743 µM
TGI (SF-268 CNS): 3.09 µM
GI50 (A549 NSCLC): 1710 nM
TGI (A549 NSCLC): 4.11 µM
GI50 (SK-MEL-2 melanoma): 2.32 µM
TGI (SK-MEL-2 melanoma): 6.84 µM
GI50 (LOX IMVI melanoma): 1080 nM
TGI (LOX IMVI melanoma): 2.43 µM
GI50 (UACC-62 melanoma): 1.49 µM
TGI (UACC-62 melanoma): 3.16 µM

CCCc1cc2cc(-n3nc(C)c4c3CC(C)(C)CC4=O)cc(NC3CCC(O)CC3)c2c(=O)[nH]1 (stereo not drawn)
GI50 (U251 CNS): 0.607 µM
TGI (U251 CNS): > 100 µM
GI50 (NCI-H23 lung): 0.0584 µM
TGI (NCI-H23 lung): > 100 µM
GI50 (NCI-H460 lung): 74.4 nM
TGI (NCI-H460 lung): > 100 µM
GI50 (UACC-257 melanoma): 372 nM
TGI (UACC-257 melanoma): > 100 µM
GI50 (M14 melanoma): 94.4 nM
TGI (M14 melanoma): > 100 µM
GI50 (SF-268 CNS): 1.8 µM
TGI (SF-268 CNS): > 100 µM
GI50 (A549 NSCLC): 215 nM
TGI (A549 NSCLC): > 100 µM
GI50 (SK-MEL-2 melanoma): 0.441 µM
TGI (SK-MEL-2 melanoma): > 100 µM
GI50 (LOX IMVI melanoma): 116 nM
TGI (LOX IMVI melanoma): 1.07 µM
GI50 (UACC-62 melanoma): 0.189 µM
TGI (UACC-62 melanoma): 5.39 µM

O=C(Nc1nccs1)c1cc2c(cc1Cl)Sc1nccn1S2(=O)=O
GI50 (U251 CNS): 17.2 µM
TGI (U251 CNS): 31 µM
GI50 (NCI-H23 lung): 16.9 µM
TGI (NCI-H23 lung): 33.7 µM
TGI (NCI-H460 lung): 29.5 µM
GI50 (UACC-257 melanoma): 13900 nM
TGI (UACC-257 melanoma): 26.9 µM
GI50 (M14 melanoma): 17800 nM
TGI (M14 melanoma): 34.6 µM
GI50 (SF-268 CNS): 19.2 µM
TGI (SF-268 CNS): 46.9 µM
GI50 (A549 NSCLC): 23800 nM
TGI (A549 NSCLC): 63.4 µM
GI50 (SK-MEL-2 melanoma): 17.4 µM
TGI (SK-MEL-2 melanoma): 33.1 µM
GI50 (LOX IMVI melanoma): 10900 nM
TGI (LOX IMVI melanoma): 25.6 µM
GI50 (UACC-62 melanoma): 14.3 µM
TGI (UACC-62 melanoma): 27.4 µM

Cc1cccc2c(N=Nc3ccc(S(N)(=O)=O)cc3)c(O)[nH]c12
GI50 (U251 CNS): > 25 µM
TGI (U251 CNS): > 25 µM
GI50 (NCI-H23 lung): > 25 µM
TGI (NCI-H23 lung): > 25 µM
GI50 (NCI-H460 lung): > 25000 nM
TGI (NCI-H460 lung): > 25 µM
GI50 (UACC-257 melanoma): > 25000 nM
TGI (UACC-257 melanoma): > 25 µM
GI50 (M14 melanoma): > 25000 nM
TGI (M14 melanoma): > 25 µM
GI50 (SF-268 CNS): > 25 µM
TGI (SF-268 CNS): > 25 µM
GI50 (A549 NSCLC): > 25000 nM
TGI (A549 NSCLC): > 25 µM
GI50 (SK-MEL-2 melanoma): > 25 µM
TGI (SK-MEL-2 melanoma): > 25 µM
GI50 (LOX IMVI melanoma): > 25000 nM
TGI (LOX IMVI melanoma): > 25 µM
GI50 (UACC-62 melanoma): > 25 µM
TGI (UACC-62 melanoma): > 25 µM

C#CCOCn1cnc2c(=S)nc[nH]c21
TGI (U251 CNS): > 100 µM
TGI (NCI-H23 lung): > 100 µM
TGI (NCI-H460 lung): > 100 µM
TGI (UACC-257 melanoma): > 100 µM
TGI (M14 melanoma): > 100 µM
TGI (SF-268 CNS): > 100 µM
TGI (A549 NSCLC): > 100 µM
TGI (SK-MEL-2 melanoma): > 100 µM
TGI (LOX IMVI melanoma): > 100 µM
TGI (UACC-62 melanoma): > 100 µM

CC(=O)O[C@H]1C(=O)O[C@@H]2C[C@H]3C(C)=CC(=O)[C@@H](O)[C@]3(C)[C@H]3[C@@]4(O)OC[C@]32[C@@H]1[C@@H](C)[C@H]4O
GI50 (U251 CNS): < 0.01 µM
TGI (U251 CNS): 0.049 µM and 0.0797 µM
GI50 (NCI-H23 lung): < 0.0141 µM
TGI (NCI-H23 lung): 0.0904 µM and 0.453 µM
GI50 (NCI-H460 lung): 13.6 nM and 42.7 nM
TGI (NCI-H460 lung): 0.187 µM
GI50 (UACC-257 melanoma): 32.2 nM
TGI (UACC-257 melanoma): 0.137 µM
TGI (M14 melanoma): 0.0838 µM
GI50 (SF-268 CNS): 0.0173 µM
TGI (SF-268 CNS): 0.0585 µM and 0.184 µM
GI50 (A549 NSCLC): 230 nM and 431 nM
TGI (A549 NSCLC): 3.32 µM and 3.93 µM
GI50 (SK-MEL-2 melanoma): 0.0283 µM
TGI (SK-MEL-2 melanoma): 0.197 µM and 0.259 µM
GI50 (LOX IMVI melanoma): < 10 nM
TGI (LOX IMVI melanoma): 0.0642 µM and 0.442 µM
GI50 (UACC-62 melanoma): 0.0271 µM
TGI (UACC-62 melanoma): 0.531 µM and 0.2 µM

C/C=C/C=N/N(C(=O)c1cc([N+](=O)[O-])cc([N+](=O)[O-])c1)C1=NC(c2ccccc2)C(c2ccccc2)=NN1 (stereo not drawn)
TGI (U251 CNS): > 100 µM
TGI (NCI-H23 lung): 77.9 µM
TGI (NCI-H460 lung): > 100 µM
TGI (UACC-257 melanoma): 70.8 µM
TGI (M14 melanoma): > 100 µM
TGI (SF-268 CNS): > 100 µM
TGI (A549 NSCLC): > 100 µM
TGI (SK-MEL-2 melanoma): > 100 µM
TGI (LOX IMVI melanoma): > 100 µM
TGI (UACC-62 melanoma): > 100 µM

O=C1N=C(c2ccccc2)OC1C(=O)c1ccccc1 (stereo not drawn)
TGI (U251 CNS): > 100 µM
TGI (NCI-H23 lung): > 100 µM
TGI (NCI-H460 lung): > 100 µM
TGI (UACC-257 melanoma): > 100 µM
TGI (M14 melanoma): > 100 µM
TGI (SF-268 CNS): > 100 µM
TGI (A549 NSCLC): > 100 µM
TGI (SK-MEL-2 melanoma): > 100 µM
TGI (LOX IMVI melanoma): > 100 µM
TGI (UACC-62 melanoma): > 100 µM

Cc1ccc(S(=O)(=O)/N=c2\ssc(Nc3ccccc3)c2Cl)cc1
GI50 (U251 CNS): 8.92 µM
TGI (U251 CNS): 21.3 µM
GI50 (NCI-H23 lung): 11 µM
TGI (NCI-H23 lung): 27.1 µM
GI50 (NCI-H460 lung): 9020 nM
TGI (NCI-H460 lung): 19.6 µM
GI50 (UACC-257 melanoma): 9860 nM
TGI (UACC-257 melanoma): 30.3 µM
GI50 (M14 melanoma): 22800 nM
TGI (M14 melanoma): > 50 µM
GI50 (SF-268 CNS): 6.83 µM
TGI (SF-268 CNS): 21.8 µM
GI50 (A549 NSCLC): 14600 nM
TGI (A549 NSCLC): > 50 µM
GI50 (SK-MEL-2 melanoma): 18.3 µM
TGI (SK-MEL-2 melanoma): > 50 µM
GI50 (LOX IMVI melanoma): 10200 nM
TGI (LOX IMVI melanoma): 20.9 µM
GI50 (UACC-62 melanoma): 13.5 µM
TGI (UACC-62 melanoma): > 50 µM

Nc1ncnc(NC2C=C(CO)C(O)C2O)c1[N+](=O)[O-] (stereo not drawn)
TGI (U251 CNS): > 100 µM
TGI (NCI-H23 lung): > 100 µM
TGI (NCI-H460 lung): > 100 µM
TGI (UACC-257 melanoma): > 100 µM
TGI (M14 melanoma): > 100 µM
TGI (SF-268 CNS): > 100 µM
TGI (A549 NSCLC): > 100 µM
TGI (SK-MEL-2 melanoma): > 100 µM
TGI (LOX IMVI melanoma): > 100 µM
TGI (UACC-62 melanoma): > 100 µM

COC(=O)C(=O)C(C(=O)C(=O)Nc1ccc(Cl)cc1C)c1nc2ccc(C(=O)c3ccccc3)cc2[nH]c1=O (stereo not drawn)
TGI (U251 CNS): > 100 µM
TGI (NCI-H23 lung): > 100 µM
TGI (NCI-H460 lung): > 100 µM
TGI (UACC-257 melanoma): > 100 µM
TGI (M14 melanoma): > 100 µM
TGI (SF-268 CNS): > 100 µM
TGI (A549 NSCLC): > 100 µM
TGI (SK-MEL-2 melanoma): > 100 µM
TGI (LOX IMVI melanoma): > 100 µM
TGI (UACC-62 melanoma): > 100 µM

COc1ccc(/C(C)=C(\c2ccc(Cl)cc2)c2ccc(OCCN3CCCC3)cc2)cc1F
GI50 (U251 CNS): 3.15 µM
TGI (U251 CNS): 7.17 µM
GI50 (NCI-H23 lung): 3.55 µM
TGI (NCI-H23 lung): 7.27 µM
GI50 (NCI-H460 lung): 2100 nM
TGI (NCI-H460 lung): 5.29 µM
GI50 (UACC-257 melanoma): 872 nM
TGI (UACC-257 melanoma): 3.2 µM
GI50 (M14 melanoma): 882 nM
TGI (M14 melanoma): 3.09 µM
GI50 (SF-268 CNS): 4.26 µM
TGI (SF-268 CNS): 8.76 µM
GI50 (A549 NSCLC): 3010 nM
TGI (A549 NSCLC): 7.01 µM
GI50 (SK-MEL-2 melanoma): 4.27 µM
TGI (SK-MEL-2 melanoma): 8.4 µM
GI50 (LOX IMVI melanoma): 1040 nM
TGI (LOX IMVI melanoma): 3.66 µM
GI50 (UACC-62 melanoma): 3.1 µM
TGI (UACC-62 melanoma): 6.32 µM

CN=C1Nc2ccc(Cl)cc2C(c2ccccc2)=NN1C
TGI (U251 CNS): > 100 µM
TGI (NCI-H23 lung): > 100 µM
TGI (NCI-H460 lung): > 100 µM
TGI (UACC-257 melanoma): > 100 µM
TGI (M14 melanoma): > 100 µM
TGI (SF-268 CNS): > 100 µM
TGI (A549 NSCLC): > 100 µM
TGI (SK-MEL-2 melanoma): > 100 µM
TGI (LOX IMVI melanoma): > 100 µM
TGI (UACC-62 melanoma): > 100 µM
